Measurements taken from US5294605A, “Amphiphilic peptide compositions and analogues thereof” (The Scripps Research Institute, priority 1991, dated 1994).
Where “and” joins values, the source holds several entries; their conditions need not be identical. Equal values may be shown once. Read-outs that look alike come from different tables or passages of the source. Ends that are not written are not given here.

Legend:
Assay type in all cases: cell-based
[1] = tested on: P. aeruginosa ATCC 27853; assay: Antibacterial assay, NCCLS M7-T2 microdilution (Example 15), MIC; settings: Table XI; Mueller Hinton broth, 16-20 hours 37° C., 1-5×10^5 CFUs/ml
Description: (§1) The procedure for the following antibacterial assay is based upon the guidelines of the National Committee for Clinical Laboratory Standards, Document M7-T2, Volume 8, No. 8, 1988.
(§2) Stock solutions of the following Peptides (SEQ ID NO:4) and (SEQ ID NO:64) through (SEQ ID NO:68) in accordance with the present invention are prepared at a concentration of 512 μg/ml in sterile deionized distilled water and stored at -70° C.
(§3) The stock peptide solution was diluted in serial dilutions (1:2) down the wells of a microtiter plate so that the final concentrations of peptides in the wells were 0.25, 0.50, 1, 2, 4, 8, 16, 32, 64, 128, and 256 μg/ml. 1-5×10^5 CFUs/ml of either S. aureus ATCC 25923, E. coli ATCC 25922, or P. aeruginosa ATCC 27853 were added to the wells in full strength Mueller Hinton broth (BBL 11443) from a mid-log culture. The inoculum is standarized spectrophotometrically at 600 nm and is verified by colony counts. […] Minimal inhibitory concentration is defined as the lowest concentration of peptide which produces a clear well in the microtiter plate.
(§4) For purposes of explanation of Table XI below, S is the MIC of the peptide against S. aureus, P is the MIC of the peptide against P. aeruginosa, and E is the MIC of the peptide against E. coli.

[2] = tested on: S. aureus ATCC 25923; assay: as above; settings: Table XI; Mueller Hinton broth, 16-20 hours 37° C., 1-5×10^5 CFUs/ml
Description: as §1, §2, §3, §4

[3] = tested on: E. coli ATCC 25922; assay: as above; settings: Table XI; Mueller Hinton broth, 16-20 hours 37° C., 1-5×10^5 CFUs/ml
Description: as §1, §2, §3, §4

[4] = tested on: Escherichia coli; assay: Antimicrobial assay for deletion analogues (Example 10), MIC; settings: Table VII; 1.3×10^5 CFU/ml, 20 hours, LB medium
Description: (§5) For the deletion analogues of the parent peptide further described in Examples 11 and 12, antimicrobial assays were carried out in 96-well tissue culture plates. Each well was incubated with a given microorganism (Escherichia coli, Staphylococcus epidermidis, Pseudomonas aeruginosa, or Staphylococcus aureus) suspended in LB medium. Upon addition of the parent peptide or its deletion analogues (dissolved in 1×PBS<pH7.0), each well contained a final cell density of 1.3×10^5 colony forming units (CFU)/ml of E. coli, or 3.5×10^5 CFU/ml P.aeruginosa, or 3.9×10^5 CFU/ml S. Aureus or 3.0×10^5 CFU/ml S. epidermidis. The final peptide concentrations ranged from 1.5 μg/ml to greater than 100 μg/ml. Addition of peptide to the wells was defined as time zero. At twenty hours, the plates were placed in a Titertek Multiskan apparatus and the O.D. 620 determined. The plates as well as the initial innoculum were incubated at 37° C. Five wells per plate contained medium alone, whereas five others contained medium plus cells. These controls were used to eliminate the possibility of medium contamination, while providing a measure of uninhibited growth of the microorganisms. The degree of peptide activity was determined by comparing the deletion analogues with uninhibited growth of the control cells over a twenty-hour period. The effective growth inhibitation of the deletion analogues is listed in the examples and tables below.

[5] = tested on: Staphylococcus aureus; assay: as above; settings: Table VII; 3.9×10^5 CFU/ml, 20 hours, LB medium
Description: as §5

[6] = tested on: Staphylococcus epidermidis; assay: as above; settings: Table VII; 3.0×10^5 CFU/ml, 20 hours, LB medium
Description: as §5

[7] = tested on: Pseudomonas aeruginosa; assay: as above; settings: Table VII; 3.5×10^5 CFU/ml, 20 hours, LB medium
Description: as §5

[8] = tested on: Staphylococcus epidermidis; assay: Antimicrobial assay in 96-well plates, LB medium (Example 2), MIC; settings: Table I, 100 percent growth inhibition, 20 hours, 1.0×10^6 CFU/ml
[9] = tested on: Escherichia coli; settings: Table I; 100 percent growth inhibition, 20 hours, 1.0×10^6 CFU/ml, LB medium
Description: (§6) For the following Examples 3-9, antimicrobial assays were carried out in 96-well tissue culture plates. Each well was incubated with a given microorganism (Escherichia coli, Staphylococcus epidermidis, or Pseudomonas aeruginosa) suspended in LB medium. Upon the addition of the parent peptide having the structural formula hereinabove described, or its substitution analogues, or of Peptide I (dissolved in 1 X PBS, pH 7.0) each well contained a final cell density of 1.0×10^6 colony forming units (CFU)/ml. The final peptide concentrations ranged from 1.5 μg/ml to greater than 100 μg/ml.
(§7) Addition of peptides to the wells was defined as time zero. At twenty hours, the plates were placed in a Titertek Multiskan apparatus and the O.D.620 determined. The plates as well as the initial innoculum were incubated at 37° C.
(§8) Five wells per plate contained media alone, while five others contained medium plus cells. These controls were used to eliminate the possibility of media contamination while providing a measure of uninhibited growth of the microorganisms.
(§9) The degree of peptide activity was determined by comparing the substitution analogues with uninhibited growth of the control cells over a twenty-hour period.
(§10) as hereinabove described and analogues thereof wherein a methionine sulfoxide residue was substituted for various amino acid residues of the parent peptide were prepared as hereinabove described in Example 1 and tested for minimum inhibitory concentration with respect to E. coli, P. aeruginosa, and S. epidermidis at a concentration given in μg/ml, and for percent hemolysis of human red blood cells as hereinabove described in Example 2. The minimum inhibitory concentration and percent hemolysis (at a concentration of 100 μg/ml) are listed below in Table I. As used herein, the heading "Amino Acid Residue Substituted" refers to the number of the amino acid residue in the peptide which is substituted with a desired amino acid residue. All other residues remain the same as that of the normal peptide sequence. The term "Minimum Inhibitory Concentration" (MIC) as used herein indicates the minimum concentration of peptide in μg/ml needed to achieve 100 percent effective growth inhibition of the organism.

[10] = tested on: Pseudomonas aeruginosa; settings: Table I; 100 percent growth inhibition, 20 hours, 1.0×10^6 CFU/ml, LB medium
Description: as §6, §7, §8, §9, §10

| Substance | MIC P (P. aeruginosa) [1] | MIC S (S. aureus) [2] [µg/mL] | MIC E (E. coli) [3] [µg/mL] | Minimum Inhibitory Concentration E. coli [4] [µg/mL] | Minimum Inhibitory Concentration S. aureus [5] [µg/mL] | Minimum Inhibitory Concentration S. epidermidis [6] [µg/mL] | Minimum Inhibitory Concentration P. Aeruginosa [7] [µg/mL] | Minimum Inhibitory Concentration S. epidermidis [8] [µg/mL] | Minimum Inhibitory Concentration E. coli [9] [µg/mL] | Minimum Inhibitory Concentration P. Aeruginosa [10] [µg/mL] |
| --- | --- | --- | --- | --- | --- | --- | --- | --- | --- | --- |
| Ac-LKLLKKLLKKGKKLLKKL-NH2 [X-(SEQ ID NO: 68) --NH2] | 8 µg/mL | 8 | 16 |  |  |  |  |  |  |  |
| Ac-LKLLKKLLKKLKKLLKKL-NH2 [None (parent)] |  |  |  | 10 | 128 | 2.5 | 75 | 2.5 | 10 | 75 |
| Ac-LKKLLKKLKKLLKKL-NH2 [X-(SEQ ID NO: 66) --NH2] | 16 µg/mL | 8 | 8 |  |  |  |  |  |  |  |
| Ac-LLKKLKKLLKKLLKLL-NH2 [X-(SEQ ID NO: 4) --NH2] | 64 µg/mL | 32 | 32 |  |  |  |  |  |  |  |
| LLKKLKKLLKKLLKLL-NH2 [(SEQ ID NO: 4) --NH2] | 64 µg/mL | 32 | 32 |  |  |  |  |  |  |  |
| Ac-KKLLKKLKKLLKKL-NH2 [X-(SEQ ID NO: 65) --NH2] | 16 µg/mL and 32 µg/mL | 16 | 32 |  |  |  |  |  |  |  |
